These results are taken from patent US20230096145A1, “METHODS OF CONTROLLING OR PREVENTING INFESTATION OF PLANTS BY THE PHYTOPATHOGENIC MICROORGANISM CORYNESPORA CASSIICOLA” (SYNGENTA CROP PROTECTION AG, priority 2020, published 2023).

In this assay the test system is Corynespora cassiicola. The assay is described as follows: Corynespora cassiicola liquid culture growth inhibition (microtiter plate, PDB). The assay is classed as cell-based. The note with it: compared to untreated control, photometric at 620 nm after 3-4 days at 24 C. Here is the method: Conidia of the fungus from cryogenic storage were directly mixed into nutrient broth (PDB potato dextrose broth). A DMSO solution of the test compounds was placed into a microtiter plate (96-well format) and the nutrient broth containing the fungal spores was added to it. The test plates were incubated at 24 C and the inhibition of growth (% control of Corynespora cassiicola) was determined photometrically after 3-4 days at 620 nm. The activity of a compound is derived by comparing the inhibition of growth in the treated test solution to the growth in the untreated check. The concentration of the compounds was 6.7, 2.2, 0.74, 0.25, 0.082 and 0.027 ppm.
The term inhibition denotes the percentage by which the read-out fell short of the control. Low values mean little suppression, high ones strong suppression. In the case of `Cc1ccc2c(C3=NC(C)(C)C(F)(F)c4c(F)cccc43)cnn2c1C` [Compound 4], the inhibition at 6.7 ppm was no less than 70%.

`Cc1ccc2c(C3=NC(C)(C)C(F)(F)c4cc(F)ccc43)cnn2c1C` [Compound 5] showed an inhibition at 6.7 ppm of no less than 70%.

In the case of `Cc1ccc2c(C3=NC(C)(C)C(F)(F)c4ccccc43)cnn2c1` [Compound 3], the inhibition at 6.7 ppm is no less than 70%.

Regarding `Cc1ccc2c(C3=NC(C)(C)C(F)(F)c4ccccc43)cnn2c1C` [Compound 1], the inhibition at 6.7 ppm is no less than 70%.

Turning to `Cc1cccc2c(C3=NC(C)(C)C(F)(F)c4ccccc43)cnn12` [Compound 2], the inhibition at 6.7 ppm is no less than 70%.
